# Laboratory results from paper PMC8398766, “Do Small Molecules Activate the TrkB Receptor in the Same Manner as BDNF? Limitations of Published TrkB Low Molecular Agonists and Screening for Novel TrkB Orthosteric Agonists” (Pharmaceuticals, 2021).
# B1: BDNF: Brain-derived neurotrophic factor, endogenous TrkB receptor agonist (protein, UniProt P23560 19-247, looked up)
# Neurotrophic factor BDNF …: APMKEANIRGQGGLAYPGVRTHGTLESVNGPKAGSRGLTSLADTFEHVIEELLDEDQKVRPNEENNKDADLYTSRVMLSSQVPLEPPLLFLLEEYKNYLDAANMSMRVRRHSDPARRGELSVCDSISEWVTAADKKTAVDMSGGTVTVLEKVPVSKGQLKQYFYETKCNPMGYTKEGCRGIDKRHWNSQCRTTQSYVRALTMDSKKRIGWRFIRIDTSCVCTLTIKRGR
# Molecular target: T1, exTrkB (Homo sapiens, UniProt Q16620)
# T1 construct: human TrkB receptor (exTrkB), residues 1−430, was cloned into the pCMV2 expression vector; made in house; host or cells: ExpiCHO-S cells
# T1 sequence (Q16620 32-430): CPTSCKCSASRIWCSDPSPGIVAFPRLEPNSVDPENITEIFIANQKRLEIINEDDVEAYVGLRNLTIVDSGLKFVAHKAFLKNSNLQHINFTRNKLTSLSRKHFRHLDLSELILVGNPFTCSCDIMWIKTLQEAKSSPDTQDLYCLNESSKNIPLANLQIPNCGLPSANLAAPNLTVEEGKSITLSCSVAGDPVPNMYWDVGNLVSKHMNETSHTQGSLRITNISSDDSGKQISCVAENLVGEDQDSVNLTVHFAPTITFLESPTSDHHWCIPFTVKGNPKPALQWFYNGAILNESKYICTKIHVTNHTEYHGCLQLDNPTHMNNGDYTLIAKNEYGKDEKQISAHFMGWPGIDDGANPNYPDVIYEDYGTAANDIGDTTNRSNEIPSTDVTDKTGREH
# Assay: MST binding affinity (Kd) determination
# Settings: non-binding compounds given as 0
# Procedure: The gene encoding the extracellular domain of the human TrkB receptor (exTrkB), residues 1−430, was cloned into the pCMV2 expression vector. Protein expression was performed in suspension-cultivated mammalian ExpiCHO-S cells using the ExpiFectamine (Thermo Scientific, Thermo Fisher Scientific, Waltham, MA, USA) transfection reagent. The secreted protein was purified using a four-step protocol. Clarified culture medium was precipitated with ammonium sulfate added to a final concentration of 1.5 M and centrifuged (235,000× g, 60 min at 4 °C). The supernatant after centrifugation was applied on a HiTrap Phenyl column (GE Healthcare, Chicago, IL, USA) equilibrated with buffer A (25 mM Tris, 1 mM DTT; pH 7.5) with 1.5 M ammonium sulfate. Bound proteins were eluted with a linear gradient of buffer A. The eluted proteins were dialyzed overnight in buffer A and loaded on a CaptoQ ImpRes column (GE Healthcare) equilibrated with buffer A with 50 mM NaCl. The bound proteins were eluted with a linear gradient of buffer A with 1 M NaCl. The fractions containing exTrkB protein were pooled, and MnCl2 and CaCl2 (1mM final concentration each) were added. The sample was purified on a HiTrap Con A 4B column (GE Healthcare) equilibrated with buffer B (25 mM Tris, 0.5 M NaCl, 1 mM MnCl2, 1 mM CaCl2; pH 7.5) and eluted with buffer C (25 mM Tris, 0.1 M NaCl, 0.4 M α-D-glucopyranoside; pH 6.5). To improve the protein recovery, buffer C flow was paused nine times during elution. The eluted fractions were concentrated and purified by size-exclusion chromatography on a HiLoad 16/600 Superdex 200 column (GE Healthcare) in buffer A with 0.5 M NaCl. The protein samples were concentrated to 1 mg/mL, and buffer was exchanged (PBS; pH 7.4). Samples were frozen in liquid nitrogen and stored at −80 °C. The protein purity was estimated by SDS–PAGE followed by Coomassie Brilliant Blue staining. The protein concentration was determined from the absorption at 280 nm using an UV NanoDrop 1000 spectrophotometer (Thermo Scientific).
# The exTrkB was labeled with a Monolith Protein Labeling Kit RED-NHS 2nd Generation (NanoTemper Technologies GmbH, Munich, Germany) according to the manufacturer’s protocol. The labelling efficiency was always determined spectrophotometrically with NanoPhotometer® NP80 (Impel) in line with the manufacturer’s recommendations. Labelled exTrkB protein was aliquoted and stored at −80 °C to avoid repeated freeze–thaw cycles. Before analysis, the exTrkB protein was thawed on ice and diluted with MST buffer (50 mM Tris pH = 8; 150 mM NaCl; 10 mM MgCl2; 0.1% Tween20) to the desired concentration.
# For primary screening (single-point MST experiments for signal amplitude determination), each of the 987 screened compounds were diluted in MST buffer + 0.1% Tween20 to a final concentration of 0.5 mM. The tested compounds were mixed with exTrkB solution (the final concentration of exTrkB was 20 nM) and centrifuged (10,000× g, 4 min at 4 °C) to eliminate protein and compound aggregates. Before loading to capillaries (Monolith NT.115 Capillaries, NanoTemper Technologies GmbH), the samples were incubated for 5 min at 25 °C and then placed into the MST apparatus (Monolith, NanoTemper Technologies GmbH). The experiments were performed using nano-blue excitation, LED light adjusted to 20% excitation power, and MST power set to medium, and the fluorescence signal during thermophoresis was detected after 30 s. Single-point MST experiments were performed by the determination of the amplitude signal between the unbound and bound state between the molecule and exTrkB, which was analyzed using the MO.Control Software version 1.6 (NanoTemper Technologies GmbH). A reference sample containing only exTrkB and the equivalent DMSO concentration (v/v) was included in each individual MST experiment. At least three technical replicates were prepared for each of the tested compounds. A binding affinity study was performed for 113 of the selected compounds at 16 concentration points. […]
row,Kd [µM],Molecule
1,2.6,"O=C1C(O)=C(c2c[nH]c3ccccc23)C(=O)C(O)=C1c1c[nH]c2ccccc12 [CPL503052, didemethylasterriquinone D]"
2,5.6,C=CC(C)(C)c1[nH]c2ccccc2c1C1=C(O)C(=O)C(c2c[nH]c3c(CC=C(C)C)cccc23)=C(O)C1=O [DMAQ-B1]
3,0.093,B1

row,Molecule,Kd [µM]
1,"O=c1cc(-c2ccccc2)oc2c(O)c(O)ccc12 [7,8-DHF, 7,8-dihydroxyflavone]",1.3
